molecular target: T1, purified human HDAC6 (Homo sapiens, UniProt Q9UBN7); test: HDAC6 Enzyme Assay; assay type: biochemical; details: compound concentration 0.37 μM, read-out: Percent Inhibition
T1 construct: purchased BPS Bioscience 5006
T1 sequence (Q9UBN7 1-1215): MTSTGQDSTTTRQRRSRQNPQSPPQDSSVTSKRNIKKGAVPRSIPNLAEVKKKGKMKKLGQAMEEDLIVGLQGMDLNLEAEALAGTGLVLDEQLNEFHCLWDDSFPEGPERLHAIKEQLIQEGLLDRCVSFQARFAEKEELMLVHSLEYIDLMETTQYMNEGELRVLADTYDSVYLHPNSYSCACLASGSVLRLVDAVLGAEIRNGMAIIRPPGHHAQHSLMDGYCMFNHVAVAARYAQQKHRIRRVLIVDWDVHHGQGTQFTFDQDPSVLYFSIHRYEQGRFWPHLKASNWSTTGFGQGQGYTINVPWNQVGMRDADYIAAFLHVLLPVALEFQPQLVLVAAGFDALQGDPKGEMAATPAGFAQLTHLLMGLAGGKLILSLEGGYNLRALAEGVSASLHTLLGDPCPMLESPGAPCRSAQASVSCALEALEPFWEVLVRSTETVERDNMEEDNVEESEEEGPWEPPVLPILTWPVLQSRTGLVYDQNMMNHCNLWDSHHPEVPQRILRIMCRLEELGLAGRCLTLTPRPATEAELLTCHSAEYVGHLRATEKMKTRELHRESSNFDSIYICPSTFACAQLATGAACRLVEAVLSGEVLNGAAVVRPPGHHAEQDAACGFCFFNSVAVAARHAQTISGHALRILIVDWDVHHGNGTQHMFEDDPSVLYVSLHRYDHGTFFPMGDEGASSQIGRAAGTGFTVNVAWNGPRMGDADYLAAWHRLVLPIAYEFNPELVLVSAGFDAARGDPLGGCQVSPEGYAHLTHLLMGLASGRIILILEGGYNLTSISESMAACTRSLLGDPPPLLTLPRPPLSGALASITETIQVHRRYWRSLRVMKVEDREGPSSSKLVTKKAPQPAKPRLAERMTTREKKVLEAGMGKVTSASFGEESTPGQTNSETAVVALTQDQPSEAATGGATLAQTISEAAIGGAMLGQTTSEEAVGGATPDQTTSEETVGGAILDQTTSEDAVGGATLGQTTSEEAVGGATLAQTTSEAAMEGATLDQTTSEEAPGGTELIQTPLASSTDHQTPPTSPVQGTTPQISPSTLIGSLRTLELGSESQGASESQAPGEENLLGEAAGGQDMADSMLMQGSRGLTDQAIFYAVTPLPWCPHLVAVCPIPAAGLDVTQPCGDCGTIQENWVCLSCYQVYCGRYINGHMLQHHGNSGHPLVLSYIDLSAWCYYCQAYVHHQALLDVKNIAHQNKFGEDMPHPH
In short: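 Readout is AMC fluorescence (Ex 340 nm, Em 460 nm) after trypsin cleavage of the deacetylated Ac-Arg-Gly-Lys(Ac)-AMC product. Reaction: purified human HDAC6, compound or vehicle, 1 hour, 30° C, quenched by trichostatin A. Single-concentration percent inhibition or IC50 calculated versus DMSO-treated samples.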

Structure (SMILES) | inhibition at 0.37 µM [%]
O=C(NO)c1ccc2ccn(CCc3cccc(C4CCNCC4)c3)c(=O)c2c1 [Compound I-324, N-hydroxy-1-oxo-2-[2-(3-piperidin-4-ylphenyl)ethyl]-1,2-dihydroisoquinoline-7-carboxamide] | 91.2
O=C(NO)c1ccc2ccn(Cc3cccc(-n4ncc5ccccc54)c3)c(=O)c2c1 [Compound I-137, N-hydroxy-2-[3-(1H-indazol-1-yl)benzyl]-1-oxo-1,2-dihydroisoquinoline-7-carboxamide] | 99.5
O=C(NO)c1ccc2ncn(CCc3cccc(-c4cccc(OC(F)(F)F)c4)c3)c(=O)c2c1 [Compound I-312, N-hydroxy-4-oxo-3-{2-[3′-(trifluoromethoxy)biphenyl-3-yl]ethyl}-3,4-dihydroquinazoline-6-carboxamide] | 76.2
O=C(NO)c1ccc2ncn(Cc3cccc(S(=O)(=O)c4ccccc4)c3)c(=O)c2c1 [Compound I-142, N-hydroxy-4-oxo-3-[3-(phenylsulfonyl)benzyl]-3,4-dihydroquinazoline-6-carboxamide] | 97.4
O=C(NO)c1ccc2c(=O)n(Cc3ccc(C(F)(F)F)cc3)c(-c3cnc(N4CCOCC4)s3)nc2c1 [Compound I-237, N-hydroxy-2-(2-morpholin-4-yl-1,3-thiazol-5-yl)-4-oxo-3-[4-(trifluoromethyl)benzyl]-3,4-dihydroquinazoline-7-carboxamide] | 88
O=C(NO)c1ccc2c(=O)[nH]c(Cc3ccccc3F)nc2c1 [Compound I-411, 2-(2-fluorobenzyl)-N-hydroxy-4-oxo-3,4-dihydroquinazoline-7-carboxamide] | 85.1
O=C(NO)c1ccc2c(=O)n(Cc3ccc(C(F)(F)F)cc3)c(-c3cccc4cccnc34)nc2c1 [Compound I-26, N-hydroxy-4-oxo-2-quinolin-8-yl-3-[4-(trifluoromethyl)benzyl]-3,4-dihydroquinazoline-7-carboxamide] | 92.3
CC(=O)Nc1ccc(-c2cccc(Cn3cnc4ccc(C(=O)NO)cc4c3=O)c2)cc1 [Compound I-80, 3-{[4′-(acetylamino)biphenyl-3-yl]methyl}-N-hydroxy-4-oxo-3,4-dihydroquinazoline-6-carboxamide] | 86.7
Cc1cccc(-c2cccc(CCn3cnc4ccc(C(=O)NO)cc4c3=O)c2)c1 [Compound I-304, N-hydroxy-3-[2-(3′-methylbiphenyl-3-yl)ethyl]-4-oxo-3,4-dihydroquinazoline-6-carboxamide] | 90.9

Further lines, results first:

inhibition at 0.37 µM [%] | Structure (SMILES)
98.6 | Cn1cc(-c2cccc(Cn3ccc4ccc(C(=O)NO)cc4c3=O)c2)cn1 [Compound I-319, N-hydroxy-2-[3-(1-methyl-1H-pyrazol-4-yl)benzyl]-1-oxo-1,2-dihydroisoquinoline-7-carboxamide]
99 | O=C(NO)c1ccc2ccn(Cc3ccc(-n4cccc4)cc3)c(=O)c2c1 [Compound I-305, N-hydroxy-1-oxo-2-[4-(1H-pyrrol-1-yl)benzyl]-1,2-dihydroisoquinoline-7-carboxamide]
90.3 | O=C(NO)c1ccc2ccn(-c3ccccn3)c(=O)c2c1 [Compound I-310, N-hydroxy-1-oxo-2-pyridin-2-yl-1,2-dihydroisoquinoline-7-carboxamide]
87 | O=C(NO)c1ccc2ccn(-c3ccccc3F)c(=O)c2c1 [Compound I-346, 2-(2-fluorophenyl)-N-hydroxy-1-oxo-1,2-dihydroisoquinoline-7-carboxamide]
91.3 | O=C(NO)c1ccc2ccn(CCC3CCNCC3)c(=O)c2c1 [Compound I-343, N-hydroxy-1-oxo-2-(2-piperidin-4-ylethyl)-1,2-dihydroisoquinoline-7-carboxamide]

same assay, conditions: compound concentration 0.412 μM, read-out: Percent Inhibition

Structure (SMILES) | inhibition at 0.412 µM [%]
O=C(NO)c1ccc2ncn(CCOc3ccccc3)c(=O)c2c1 [Compound I-180, N-hydroxy-4-oxo-3-(2-phenoxyethyl)-3,4-dihydroquinazoline-6-carboxamide] | 97
O=C(NO)c1ccc2c(=O)n(CCc3ccccn3)c(C3CCCCC3)nc2c1 [Compound I-6, 2-cyclohexyl-N-hydroxy-4-oxo-3-(2-pyridin-2-ylethyl)-3,4-dihydroquinazoline-7-carboxamide] | 77.7
O=C(NO)c1ccc2c(=O)[nH]c(-c3cccc(C(F)(F)F)c3)nc2c1 [Compound I-260, N-hydroxy-4-oxo-2-[3-(trifluoromethyl)phenyl]-3,4-dihydroquinazoline-7-carboxamide] | 73.2
COc1ccc2ccc(OCCCn3ccc4ccc(C(=O)NO)cc4c3=O)cc2c1 [Compound I-231, N-hydroxy-2-{3-[(7-methoxy-2-naphthyl)oxy]propyl}-1-oxo-1,2-dihydroisoquinoline-7-carboxamide] | 94.8
O=C(NO)c1ccc2c(=O)n(Cc3ccc(C(F)(F)F)cc3)c(C3CCCCC3)nc2c1 [Compound I-150, 2-cyclohexyl-N-hydroxy-4-oxo-3-[4-(trifluoromethyl)benzyl]-3,4-dihydroquinazoline-7-carboxamide] | 30.1
Cc1ccc(OCc2nc3cc(C(=O)NO)ccc3c(=O)[nH]2)cc1 [Compound I-265, N-hydroxy-2-[(4-methylphenoxy)methyl]-4-oxo-3,4-dihydroquinazoline-7-carboxamide] | 81.3
O=C(NO)c1ccc2ncn(Cc3ccc(F)cc3)c(=O)c2c1 [Compound I-115, 3-(4-fluorobenzyl)-N-hydroxy-4-oxo-3,4-dihydroquinazoline-6-carboxamide] | 90.2

Second part, the compound after the results:

inhibition at 0.412 µM [%] | Structure (SMILES)
91 | O=C(NO)c1ccc2ccn(CCNCc3cccc(C(F)(F)F)c3)c(=O)c2c1 [Compound I-77, N-hydroxy-1-oxo-2-(2-{[3-(trifluoromethyl)benzyl]amino}ethyl)-1,2-dihydroisoquinoline-7-carboxamide]
95.5 | CS(=O)(=O)c1ccc(Cn2ccc3ccc(C(=O)NO)cc3c2=O)cc1 [Compound I-186, N-hydroxy-2-[4-(methylsulfonyl)benzyl]-1-oxo-1,2-dihydroisoquinoline-7-carboxamide]
89.9 | CCN(CC)Cc1cccc(Cn2ccc3ccc(C(=O)NO)cc3c2=O)c1 [Compound I-208, 2-{3-[(diethylamino)methyl]benzyl}-N-hydroxy-1-oxo-1,2-dihydroisoquinoline-7-carboxamide]
94.9 | O=C(NO)c1ccc2ccn(Cc3ccc(F)cc3Cl)c(=O)c2c1 [Compound I-50, 2-(2-chloro-4-fluorobenzyl)-N-hydroxy-1-oxo-1,2-dihydroisoquinoline-7-carboxamide]
93 | CCC(CC)Cn1ccc2ccc(C(=O)NO)cc2c1=O [Compound I-130, 2-(2-ethylbutyl)-N-hydroxy-1-oxo-1,2-dihydroisoquinoline-7-carboxamide]
94.1 | O=C(NO)c1ccc2ccn(Cc3ccccc3)c(=O)c2c1 [Compound I-219, 2-benzyl-N-hydroxy-1-oxo-1,2-dihydroisoquinoline-7-carboxamide]
94.9 | O=C(NO)c1ccc2ccn(Cc3c(Cl)cccc3Cl)c(=O)c2c1 [Compound I-7, 2-(2,6-dichlorobenzyl)-N-hydroxy-1-oxo-1,2-dihydroisoquinoline-7-carboxamide]
46.4 | CCN(CC)c1nc2ccc(C(=O)NO)cc2c(=O)n1C [Compound I-203, 2-(diethylamino)-N-hydroxy-3-methyl-4-oxo-3,4-dihydroquinazoline-6-carboxamide]

Source: patent publication US8765773B2, “Substituted hydroxamic acids and uses thereof” (Millennium Pharmaceuticals, Inc., priority 2010, dated 2014)
